One assay deals with yeast expressing ExoS. In words: yeast growth recovery of yeast expressing ExoS. To be noted: CUP1 promoter; library screened at 50 µM.
A further assay addresses ExoS ADPRT activity (Pseudomonas aeruginosa, UniProt G3XDA1). The assay is described as follows: biochemical.
A further assay has as its target ADPRT activity of ExoA (Pseudomonas aeruginosa, UniProt P11439). In words: biochemical.

Chain of ExoS ADPRT activity (G3XDA1 whole entry, looked up): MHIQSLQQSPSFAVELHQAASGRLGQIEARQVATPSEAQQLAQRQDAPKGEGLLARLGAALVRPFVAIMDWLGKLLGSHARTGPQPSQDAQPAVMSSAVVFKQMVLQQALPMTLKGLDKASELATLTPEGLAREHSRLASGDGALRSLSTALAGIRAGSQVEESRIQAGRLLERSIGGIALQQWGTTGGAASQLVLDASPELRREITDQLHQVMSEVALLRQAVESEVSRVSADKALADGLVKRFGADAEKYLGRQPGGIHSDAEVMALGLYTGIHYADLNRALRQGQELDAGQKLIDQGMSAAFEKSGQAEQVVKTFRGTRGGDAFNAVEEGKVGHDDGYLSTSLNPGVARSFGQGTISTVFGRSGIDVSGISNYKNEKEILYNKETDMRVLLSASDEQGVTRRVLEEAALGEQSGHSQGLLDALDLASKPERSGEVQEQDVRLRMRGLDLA
Chain of ADPRT activity of ExoA (P11439 26-638 limits assumed): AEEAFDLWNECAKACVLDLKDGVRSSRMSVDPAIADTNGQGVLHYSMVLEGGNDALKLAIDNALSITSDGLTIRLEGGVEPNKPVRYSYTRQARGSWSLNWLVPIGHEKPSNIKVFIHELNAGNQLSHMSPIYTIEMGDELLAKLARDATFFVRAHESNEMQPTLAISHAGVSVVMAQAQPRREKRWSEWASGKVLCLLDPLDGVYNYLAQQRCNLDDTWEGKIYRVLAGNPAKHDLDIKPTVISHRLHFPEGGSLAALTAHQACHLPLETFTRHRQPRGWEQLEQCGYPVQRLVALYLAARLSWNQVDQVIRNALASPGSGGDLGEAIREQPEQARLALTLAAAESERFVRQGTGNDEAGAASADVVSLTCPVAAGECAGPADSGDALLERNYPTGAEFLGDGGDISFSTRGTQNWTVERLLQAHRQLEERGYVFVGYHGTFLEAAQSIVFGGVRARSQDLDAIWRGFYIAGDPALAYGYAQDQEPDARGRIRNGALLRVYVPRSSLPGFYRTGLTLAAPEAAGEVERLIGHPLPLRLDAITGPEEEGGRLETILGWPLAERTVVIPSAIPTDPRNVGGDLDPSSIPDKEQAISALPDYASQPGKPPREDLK

As to `CCOC(=O)n1c(=O)oc2cc([N+](=O)[O-])ccc21` [0469-0796], the “restoration of growth of yeast expressing ExoS (in words)” value (“restoration” for short) in the assay on yeast expressing ExoS is “restore yeast growth”. Usually IC50 stands for the concentration that inhibits the measured activity by half. For the compound `C=CCOC(=O)C1=C(C)NC(SCC(=O)Nc2nccs2)=C(C#N)C1c1cccs1` (stereo not shown) [4296-1011], the “restoration” value with yeast expressing ExoS is reported as “restore yeast growth”. Further, the IC50 at ExoS ADPRT activity came to 6 µM. Regarding `COc1ccc(-c2cc(=O)c3c(O)cc(O[C@@H]4O[C@H](CO[C@@H]5O[C@@H](C)[C@H](O)[C@@H](O)[C@H]5O)[C@@H](O)[C@H](O)[C@H]4O)cc3o2)cc1O` [Diosmin, reference compound], in the assay with yeast expressing ExoS, the “restoration” value is listed as “restore yeast growth”. Besides, the IC50 against ExoS ADPRT activity was determined as 3 µM.

As for `COc1cc(C)c(C(=O)O)c(O)c1` [Everninic acid], the “restoration” value in the assay with yeast expressing ExoS is given as “restore yeast growth”. This compound yielded an IC50 against ExoS ADPRT activity of 21 µM. `COc1cc(O)c(C(=O)/C=C/c2ccccc2)c(OC)c1` [Flavokawain B]: the “restoration” value in the assay on yeast expressing ExoS is reported as “restore yeast growth”. Take `CCC1CN(C(=O)Nc2ccc(C)cc2)c2cc(Cl)ccc2O1` (stereo not shown) [exosin-5138]: half-maximal inhibition on ExoS ADPRT activity (IC50) was put at 12 µM. On the same count and under the same terms, the value for `CCC1CN(C(=O)Nc2ccc(C)cc2)c2ccccc2O1` (stereo not shown) [exosin-5316] was 63 µM. On to `CCC1CN(C(=O)Nc2cccc3c2CCCC3)c2ccccc2O1` (stereo not shown) [exosin-5340], for which, in the assay on yeast expressing ExoS, the “restoration” value is on record as “no protective effect”. The compound further yielded an IC50 against ExoS ADPRT activity of 129 µM. As usually defined, the Ki is the equilibrium dissociation constant of an inhibitor or competing ligand from its target. High values mean weaker binding, low ones tighter binding. `CCc1ccc(NC(=O)N2CC(CC)Oc3ccccc32)cc1` (stereo not shown) [exosin]: the “restoration” value with yeast expressing ExoS was “restore yeast growth”. Besides, on ExoS ADPRT activity, the affinity, expressed as Ki, was 33 ± 3 µM and the “mode of inhibition of ExoS ADPRT” value is listed as “competitive inhibitor”. On ADPRT activity of ExoA, this compound displayed a concentration for half-maximal inhibition (IC50) of 17 µM.

The values above are taken from publication PMC2265467 (PLoS Genetics, 2008).
